Assay results as given in patent EP4186382A1, “MESH MATERIALS FOR CONTROLLED RELEASE OF ANTIVIRALS, METHOD AND USE” (Universidade Federal de Minas Gerais, priority 2020, dated 2022).
Several values for one entry are separate records, joined by “and”; a condition that tells them apart may be missing. Equal values may be shown once. Read-outs that look alike come from different tables or passages of the source.

Assays:
[1] = Solubility in water when preparing calibration standards; format: physicochemical
Protocol: The calibration curve used the following standards: Standard #1 - 99.5% chlorhexidine (CAS 55-56-1) from Sigma-Aldrich, Standard #2 - 20% solution of chlorhexidine digluconate in solution (CAS 18472-51-0). Samples with both standards were prepared in deionized water. […] With Standard #2 it was possible to obtain a good reproducibility of the areas; therefore, it was decided to perform the calibration curve with standard #2.

[2] = system: Coronavirus (MHV-3 Strain); format: cell-based, Coronavirus MHV-3 Strain genus Betacoronavirus

N=C(NCCCCCCNC(=N)NC(=N)Nc1ccc(Cl)cc1)NC(=N)Nc1ccc(Cl)cc1.O=C(O)[C@H](O)[C@@H](O)[C@H](O)[C@H](O)CO.O=C(O)[C@H](O)[C@@H](O)[C@H](O)[C@H](O)CO [chlorhexidine digluconate]
solubility in water ([1]; deionized water): no solubility problems

N=C(NCCCCCCNC(=N)NC(=N)Nc1ccc(Cl)cc1)NC(=N)Nc1ccc(Cl)cc1 [5% Chlorhexidine, 1,1'-hexamethylene-bis(5-(p-chlorophenyl)-biguanide)]
time after which activity was lost ([2]; concentration of 5%): ≤ 10 min
Infectivity Reduction (Virus Titer 10^8/mL) ([2]; contact time 1 minute): 10^4
Coronavirus (MHV-3 Strain) inactivation ([2]; contact time 1 minute, listed as Chlorhexidine 5.0%): 99.99%
Infectivity Reduction (Virus Titer 10^8/mL) ([2]; contact time 5 minutes): 10^4
Coronavirus (MHV-3 Strain) inactivation ([2]; contact time 5 minutes, listed as Chlorhexidine 5.0%): 99.99%
Coronavirus (MHV-3 Strain) inactivation ([2]; contact time 10 minutes): 99.9% and 99.99%
Infectivity Reduction (Virus Titer 10^8/mL) ([2]; contact time 10 minutes): 10^5
Coronavirus (MHV-3 Strain) inactivation ([2]; contact time 10 minutes, listed as Chlorhexidine 5.0%): 99.9%
Coronavirus (MHV-3 Strain) inactivation ([2]; contact time 1 hour): Not effective
Coronavirus (MHV-3 Strain) inactivation ([2]; contact time 4 hours): Not effective
Coronavirus (MHV-3 Strain) inactivation ([2]; contact time Immediate): Not Effective

[H]/N=C(\N/C(=N/[H])NCCCCCCNC(=N)NC(=N)Nc1ccc(Cl)cc1)Nc1ccc(Cl)cc1 [Chlorhexidine, 1,1'-hexamethylene-bis(5-(p-chlorophenyl)-biguanide)]
solubility in water [1]: very low solubility in water
